In article PMC8550792, “Evolution of kinase polypharmacology across HSP90 drug discovery” (Cell Chemical Biology, 2021):

Tests used:
Assay in all cases: biochemical
Format in all cases: biochemical
382 unique human kinases [1] = molecular target: T1, 382 unique human kinases (Homo sapiens, UniProt O96017); conditions: kinase CHK2, compound 10 uM; for remaining activity at 10 µM: read-out: % Enzyme Activity (relative to DMSO controls)
T1 construct: purchased Reaction Biology (HotSpot contract assay)
T1 sequence (O96017 whole entry): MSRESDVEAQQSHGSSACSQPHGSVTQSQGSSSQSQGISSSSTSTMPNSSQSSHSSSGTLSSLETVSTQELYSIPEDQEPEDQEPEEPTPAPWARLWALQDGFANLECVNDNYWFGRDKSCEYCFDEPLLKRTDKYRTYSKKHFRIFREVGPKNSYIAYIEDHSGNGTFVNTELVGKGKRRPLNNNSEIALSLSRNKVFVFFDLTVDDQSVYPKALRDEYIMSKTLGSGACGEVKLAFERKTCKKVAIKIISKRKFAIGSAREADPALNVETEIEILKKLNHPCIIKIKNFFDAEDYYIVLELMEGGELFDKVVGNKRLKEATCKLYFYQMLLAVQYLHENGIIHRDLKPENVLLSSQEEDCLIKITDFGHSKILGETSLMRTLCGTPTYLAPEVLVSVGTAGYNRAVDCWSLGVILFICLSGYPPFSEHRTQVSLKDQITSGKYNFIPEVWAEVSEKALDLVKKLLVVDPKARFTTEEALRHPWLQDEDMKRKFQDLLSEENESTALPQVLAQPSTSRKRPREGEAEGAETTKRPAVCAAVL

382 unique human kinases [2] = molecular target: T2, 382 unique human kinases (Homo sapiens, UniProt P08581); conditions: kinase c-MET, compound 10 uM; for remaining activity at 10 µM: read-out: % Enzyme Activity (relative to DMSO controls)
T2 construct: purchased Reaction Biology (HotSpot contract assay)
T2 sequence (P08581 25-1390): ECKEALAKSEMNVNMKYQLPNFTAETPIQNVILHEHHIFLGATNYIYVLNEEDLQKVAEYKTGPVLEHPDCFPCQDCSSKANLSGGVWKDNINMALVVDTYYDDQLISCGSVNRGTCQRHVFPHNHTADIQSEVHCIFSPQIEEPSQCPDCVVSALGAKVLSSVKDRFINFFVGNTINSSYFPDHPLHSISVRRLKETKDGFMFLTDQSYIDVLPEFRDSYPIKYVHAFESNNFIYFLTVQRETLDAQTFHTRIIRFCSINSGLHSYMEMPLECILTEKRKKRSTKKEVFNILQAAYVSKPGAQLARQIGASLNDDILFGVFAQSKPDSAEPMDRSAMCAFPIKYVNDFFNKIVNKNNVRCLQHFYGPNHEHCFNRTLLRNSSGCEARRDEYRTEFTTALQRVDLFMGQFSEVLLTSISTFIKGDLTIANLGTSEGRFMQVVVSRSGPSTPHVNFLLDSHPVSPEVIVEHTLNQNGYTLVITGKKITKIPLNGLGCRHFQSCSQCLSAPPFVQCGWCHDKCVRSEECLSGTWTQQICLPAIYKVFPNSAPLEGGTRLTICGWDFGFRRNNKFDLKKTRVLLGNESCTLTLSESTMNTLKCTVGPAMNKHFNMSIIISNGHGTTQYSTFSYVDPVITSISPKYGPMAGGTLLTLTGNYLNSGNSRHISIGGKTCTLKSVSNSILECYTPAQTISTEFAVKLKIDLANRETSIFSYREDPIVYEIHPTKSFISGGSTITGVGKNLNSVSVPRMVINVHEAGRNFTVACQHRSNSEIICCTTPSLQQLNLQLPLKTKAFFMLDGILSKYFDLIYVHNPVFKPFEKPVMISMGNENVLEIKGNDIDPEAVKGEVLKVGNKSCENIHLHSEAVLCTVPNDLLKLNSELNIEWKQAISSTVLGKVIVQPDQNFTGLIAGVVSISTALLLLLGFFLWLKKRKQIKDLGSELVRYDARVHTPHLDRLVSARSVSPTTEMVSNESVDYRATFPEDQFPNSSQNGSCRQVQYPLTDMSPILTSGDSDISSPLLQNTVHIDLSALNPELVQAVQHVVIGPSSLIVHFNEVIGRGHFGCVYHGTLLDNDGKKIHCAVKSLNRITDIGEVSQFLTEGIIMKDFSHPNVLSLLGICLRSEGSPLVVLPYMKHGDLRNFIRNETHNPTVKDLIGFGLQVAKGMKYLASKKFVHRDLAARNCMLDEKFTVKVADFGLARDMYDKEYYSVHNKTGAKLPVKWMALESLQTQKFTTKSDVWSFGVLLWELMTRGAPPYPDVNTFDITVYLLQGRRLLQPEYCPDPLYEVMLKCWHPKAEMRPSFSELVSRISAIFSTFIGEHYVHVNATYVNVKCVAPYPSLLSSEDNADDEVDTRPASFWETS

382 unique human kinases [3] = molecular target: T3, 382 unique human kinases (Homo sapiens, UniProt P21802, K526E); conditions: for remaining activity at 10 µM: read-out: % Enzyme Activity (relative to DMSO controls)
T3 construct: purchased Reaction Biology (HotSpot contract assay)
T3 sequence (P21802 22-821 K526E): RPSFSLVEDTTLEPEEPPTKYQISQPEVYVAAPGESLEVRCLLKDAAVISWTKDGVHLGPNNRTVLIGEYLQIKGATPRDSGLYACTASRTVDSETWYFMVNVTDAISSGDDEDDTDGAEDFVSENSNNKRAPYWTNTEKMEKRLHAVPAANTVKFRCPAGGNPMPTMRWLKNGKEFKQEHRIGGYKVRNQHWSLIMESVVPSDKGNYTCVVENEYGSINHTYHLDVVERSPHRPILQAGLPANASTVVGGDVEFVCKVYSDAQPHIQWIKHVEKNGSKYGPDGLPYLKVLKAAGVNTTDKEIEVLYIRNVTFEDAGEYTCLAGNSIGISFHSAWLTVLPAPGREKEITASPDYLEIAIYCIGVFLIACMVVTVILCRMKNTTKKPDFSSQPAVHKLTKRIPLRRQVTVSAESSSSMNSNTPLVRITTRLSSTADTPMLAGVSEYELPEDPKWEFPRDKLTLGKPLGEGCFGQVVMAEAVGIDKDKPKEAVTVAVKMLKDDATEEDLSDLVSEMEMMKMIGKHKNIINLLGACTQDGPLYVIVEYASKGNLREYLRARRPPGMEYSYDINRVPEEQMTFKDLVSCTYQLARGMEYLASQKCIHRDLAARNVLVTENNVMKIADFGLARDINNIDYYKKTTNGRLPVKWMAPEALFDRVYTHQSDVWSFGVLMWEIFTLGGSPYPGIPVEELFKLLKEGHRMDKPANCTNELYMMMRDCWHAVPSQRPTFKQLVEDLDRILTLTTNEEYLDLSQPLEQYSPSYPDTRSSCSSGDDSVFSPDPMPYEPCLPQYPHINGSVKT

382 unique human kinases [4] = molecular target: T4, 382 unique human kinases (Homo sapiens, UniProt P25098); conditions: GRK2, compound at 10 uM, duplicate values; for remaining activity at 10 µM: read-out: % Enzyme Activity (relative to DMSO controls)
T4 construct: purchased Reaction Biology (HotSpot contract assay)
T4 sequence (P25098 1-689): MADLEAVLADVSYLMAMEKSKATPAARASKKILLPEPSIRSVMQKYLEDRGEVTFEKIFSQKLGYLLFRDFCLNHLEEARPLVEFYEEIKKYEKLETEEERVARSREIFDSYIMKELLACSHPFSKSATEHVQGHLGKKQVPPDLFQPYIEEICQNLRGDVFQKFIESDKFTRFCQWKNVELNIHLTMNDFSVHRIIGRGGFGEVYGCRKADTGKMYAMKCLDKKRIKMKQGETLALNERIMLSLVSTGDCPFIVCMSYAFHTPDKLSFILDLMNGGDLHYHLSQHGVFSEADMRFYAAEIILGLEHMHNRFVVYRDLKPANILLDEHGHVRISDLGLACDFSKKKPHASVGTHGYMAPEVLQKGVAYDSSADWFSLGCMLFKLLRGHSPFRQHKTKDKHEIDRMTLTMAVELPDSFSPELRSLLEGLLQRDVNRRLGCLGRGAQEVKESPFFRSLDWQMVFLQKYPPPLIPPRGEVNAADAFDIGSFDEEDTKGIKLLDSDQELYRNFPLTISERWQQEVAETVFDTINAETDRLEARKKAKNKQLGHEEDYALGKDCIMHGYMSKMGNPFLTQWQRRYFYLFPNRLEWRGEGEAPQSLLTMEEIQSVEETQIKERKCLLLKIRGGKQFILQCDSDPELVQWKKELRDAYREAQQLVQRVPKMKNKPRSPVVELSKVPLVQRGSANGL

382 unique human kinases [5] = molecular target: T5, 382 unique human kinases (Homo sapiens, UniProt P49674); conditions: CK1epsilon, 10 uM; for remaining activity at 10 µM: read-out: % Enzyme Activity (relative to DMSO controls)
T5 construct: purchased Reaction Biology (HotSpot contract assay)
T5 sequence (P49674 whole entry): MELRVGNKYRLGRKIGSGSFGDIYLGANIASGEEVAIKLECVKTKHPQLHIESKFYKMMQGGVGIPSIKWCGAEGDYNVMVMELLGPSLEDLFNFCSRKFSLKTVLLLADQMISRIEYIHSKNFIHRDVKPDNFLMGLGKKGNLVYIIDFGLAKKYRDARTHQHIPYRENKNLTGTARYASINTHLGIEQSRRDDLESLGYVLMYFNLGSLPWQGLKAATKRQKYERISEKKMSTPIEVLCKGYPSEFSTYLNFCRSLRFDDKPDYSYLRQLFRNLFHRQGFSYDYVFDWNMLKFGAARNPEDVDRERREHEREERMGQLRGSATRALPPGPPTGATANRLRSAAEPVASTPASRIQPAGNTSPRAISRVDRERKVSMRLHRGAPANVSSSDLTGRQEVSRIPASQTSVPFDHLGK

382 unique human kinases [6] = molecular target: T6, 382 unique human kinases (Homo sapiens, UniProt Q12866); conditions: c-MER, 10 uM; for remaining activity at 10 µM: read-out: % Enzyme Activity (relative to DMSO controls)
T6 construct: purchased Reaction Biology (HotSpot contract assay)
T6 sequence (Q12866 21-999): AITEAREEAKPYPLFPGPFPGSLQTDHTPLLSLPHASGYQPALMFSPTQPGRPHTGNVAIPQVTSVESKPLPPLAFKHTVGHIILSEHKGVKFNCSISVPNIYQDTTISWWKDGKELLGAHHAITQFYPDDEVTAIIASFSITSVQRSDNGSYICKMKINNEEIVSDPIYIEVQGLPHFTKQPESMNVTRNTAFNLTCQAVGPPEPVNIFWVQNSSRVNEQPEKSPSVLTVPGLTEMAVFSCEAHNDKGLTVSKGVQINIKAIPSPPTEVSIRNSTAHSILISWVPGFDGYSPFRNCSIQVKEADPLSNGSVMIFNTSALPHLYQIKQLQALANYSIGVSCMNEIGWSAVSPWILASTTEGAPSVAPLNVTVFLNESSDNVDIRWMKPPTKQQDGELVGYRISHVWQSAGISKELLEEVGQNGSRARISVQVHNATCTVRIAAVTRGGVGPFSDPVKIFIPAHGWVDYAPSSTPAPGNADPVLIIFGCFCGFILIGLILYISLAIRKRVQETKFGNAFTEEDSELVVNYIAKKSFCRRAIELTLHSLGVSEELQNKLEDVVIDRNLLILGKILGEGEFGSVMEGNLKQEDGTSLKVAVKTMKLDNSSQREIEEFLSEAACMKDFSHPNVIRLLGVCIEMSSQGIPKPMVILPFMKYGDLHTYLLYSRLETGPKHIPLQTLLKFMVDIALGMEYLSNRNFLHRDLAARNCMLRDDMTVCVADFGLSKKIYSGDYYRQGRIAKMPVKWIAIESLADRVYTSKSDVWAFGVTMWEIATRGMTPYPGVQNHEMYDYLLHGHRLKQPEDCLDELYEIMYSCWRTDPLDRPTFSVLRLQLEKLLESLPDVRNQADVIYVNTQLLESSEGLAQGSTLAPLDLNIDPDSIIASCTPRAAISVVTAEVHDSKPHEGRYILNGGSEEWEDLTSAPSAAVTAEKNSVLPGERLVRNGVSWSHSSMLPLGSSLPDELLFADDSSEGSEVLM

382 unique human kinases [7] = molecular target: T7, 382 unique human kinases (Homo sapiens, UniProt Q13233); conditions: kinase MEKK1, compound 10 uM; for remaining activity at 10 µM: read-out: % Enzyme Activity (relative to DMSO controls)
T7 construct: purchased Reaction Biology (HotSpot contract assay)
T7 sequence (Q13233 whole entry): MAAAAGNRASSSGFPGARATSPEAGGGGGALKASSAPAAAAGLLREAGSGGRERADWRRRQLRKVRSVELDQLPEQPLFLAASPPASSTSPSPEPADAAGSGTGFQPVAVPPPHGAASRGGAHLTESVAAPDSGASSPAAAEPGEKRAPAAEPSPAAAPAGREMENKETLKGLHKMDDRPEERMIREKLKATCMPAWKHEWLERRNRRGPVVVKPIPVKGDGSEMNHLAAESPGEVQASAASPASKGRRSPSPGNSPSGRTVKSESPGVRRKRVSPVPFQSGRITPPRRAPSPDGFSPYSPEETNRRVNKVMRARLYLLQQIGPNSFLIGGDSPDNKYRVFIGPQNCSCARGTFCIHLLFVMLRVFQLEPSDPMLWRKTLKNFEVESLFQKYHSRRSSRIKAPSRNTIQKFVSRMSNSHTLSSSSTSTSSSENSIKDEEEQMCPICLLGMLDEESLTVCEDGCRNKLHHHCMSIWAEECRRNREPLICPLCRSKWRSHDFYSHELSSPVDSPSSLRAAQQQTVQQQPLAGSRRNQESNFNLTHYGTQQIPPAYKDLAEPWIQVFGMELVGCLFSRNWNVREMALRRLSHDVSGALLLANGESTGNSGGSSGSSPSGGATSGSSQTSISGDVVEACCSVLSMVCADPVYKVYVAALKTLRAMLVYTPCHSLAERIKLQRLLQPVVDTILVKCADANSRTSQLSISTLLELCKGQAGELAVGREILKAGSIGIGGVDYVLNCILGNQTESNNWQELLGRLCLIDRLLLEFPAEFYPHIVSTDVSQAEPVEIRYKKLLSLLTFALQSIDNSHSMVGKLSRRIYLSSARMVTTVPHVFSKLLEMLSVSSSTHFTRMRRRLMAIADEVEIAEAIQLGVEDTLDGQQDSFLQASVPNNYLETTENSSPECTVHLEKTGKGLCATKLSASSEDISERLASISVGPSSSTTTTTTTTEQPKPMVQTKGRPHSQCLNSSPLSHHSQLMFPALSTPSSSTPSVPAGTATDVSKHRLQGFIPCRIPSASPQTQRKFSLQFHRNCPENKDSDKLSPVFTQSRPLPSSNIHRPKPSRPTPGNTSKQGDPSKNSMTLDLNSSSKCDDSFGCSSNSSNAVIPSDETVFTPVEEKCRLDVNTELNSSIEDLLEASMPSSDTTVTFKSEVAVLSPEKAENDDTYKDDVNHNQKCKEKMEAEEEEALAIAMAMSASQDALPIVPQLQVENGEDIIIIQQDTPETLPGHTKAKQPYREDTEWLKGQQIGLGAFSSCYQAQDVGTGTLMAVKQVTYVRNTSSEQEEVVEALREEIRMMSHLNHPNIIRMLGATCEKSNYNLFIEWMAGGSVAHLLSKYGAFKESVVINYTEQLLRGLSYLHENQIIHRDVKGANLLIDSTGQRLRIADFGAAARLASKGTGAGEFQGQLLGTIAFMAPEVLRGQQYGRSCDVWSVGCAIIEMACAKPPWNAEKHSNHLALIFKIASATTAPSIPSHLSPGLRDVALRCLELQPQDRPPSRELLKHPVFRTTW

382 unique human kinases [8] = molecular target: T8, 382 unique human kinases (Homo sapiens, UniProt Q13470); conditions: TNK1, 10 uM; for remaining activity at 10 µM: read-out: % Enzyme Activity (relative to DMSO controls)
T8 construct: purchased Reaction Biology (HotSpot contract assay)
T8 sequence (Q13470 1-666): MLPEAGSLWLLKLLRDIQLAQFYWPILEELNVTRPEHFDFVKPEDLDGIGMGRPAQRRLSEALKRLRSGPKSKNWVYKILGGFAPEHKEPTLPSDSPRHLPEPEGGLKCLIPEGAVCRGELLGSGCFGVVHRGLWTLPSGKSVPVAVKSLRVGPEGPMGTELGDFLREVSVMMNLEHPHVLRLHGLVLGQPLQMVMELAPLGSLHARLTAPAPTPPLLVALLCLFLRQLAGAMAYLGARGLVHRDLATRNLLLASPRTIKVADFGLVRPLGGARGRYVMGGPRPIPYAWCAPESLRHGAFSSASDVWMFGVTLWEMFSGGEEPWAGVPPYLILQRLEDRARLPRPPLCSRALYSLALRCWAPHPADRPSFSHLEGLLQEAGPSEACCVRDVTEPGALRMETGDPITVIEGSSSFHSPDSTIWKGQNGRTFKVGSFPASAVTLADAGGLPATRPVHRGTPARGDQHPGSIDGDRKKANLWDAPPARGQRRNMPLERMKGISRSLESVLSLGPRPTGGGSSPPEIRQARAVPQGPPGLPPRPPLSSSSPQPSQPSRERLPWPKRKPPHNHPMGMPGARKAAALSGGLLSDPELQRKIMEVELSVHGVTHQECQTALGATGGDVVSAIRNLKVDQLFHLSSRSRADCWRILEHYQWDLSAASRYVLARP

382 unique human kinases [9] = molecular target: T9, 382 unique human kinases (Homo sapiens, UniProt Q9BXA6); conditions: kinase SSTK/TSSK6, compound 10 uM; for remaining activity at 10 µM: read-out: % Enzyme Activity (relative to DMSO controls)
T9 construct: purchased Reaction Biology (HotSpot contract assay)
T9 sequence (Q9BXA6 whole entry): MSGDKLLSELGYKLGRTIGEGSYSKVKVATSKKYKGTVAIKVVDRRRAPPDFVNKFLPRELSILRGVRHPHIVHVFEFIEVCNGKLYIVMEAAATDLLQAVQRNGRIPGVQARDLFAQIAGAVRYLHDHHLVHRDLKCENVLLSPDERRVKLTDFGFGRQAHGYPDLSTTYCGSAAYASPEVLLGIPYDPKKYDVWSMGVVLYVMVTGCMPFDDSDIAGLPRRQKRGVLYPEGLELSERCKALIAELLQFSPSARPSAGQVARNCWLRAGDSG

SMILES	remaining activity at 10 µM (382 unique human kinases [1])	remaining activity at 10 µM (382 unique human kinases [2])	remaining activity at 10 µM (382 unique human kinases [3])	remaining activity at 10 µM (382 unique human kinases [4])	remaining activity at 10 µM (382 unique human kinases [5])	remaining activity at 10 µM (382 unique human kinases [6])	remaining activity at 10 µM (382 unique human kinases [7])	remaining activity at 10 µM (382 unique human kinases [8])	remaining activity at 10 µM (382 unique human kinases [9])	% Enzyme Activity (relative to DMSO controls) (382 unique human kinases [1])	% Enzyme Activity (relative to DMSO controls) (382 unique human kinases [2])	% Enzyme Activity (relative to DMSO controls) (382 unique human kinases [3])	% Enzyme Activity (relative to DMSO controls) (382 unique human kinases [4])	% Enzyme Activity (relative to DMSO controls) (382 unique human kinases [5])	% Enzyme Activity (relative to DMSO controls) (382 unique human kinases [6])	% Enzyme Activity (relative to DMSO controls) (382 unique human kinases [7])	% Enzyme Activity (relative to DMSO controls) (382 unique human kinases [8])	% Enzyme Activity (relative to DMSO controls) (382 unique human kinases [9])
CC(C)c1cc(-c2n[nH]c(=O)n2-c2ccc3c(ccn3C)c2)c(O)cc1O [Ganetespib (STA9090)]	84.6%	82.2%	68.8%	104%	73.4%	63.5%	98.3%	65.8%	86.5%	–	–	–	–	–	–	–	–	–
CCNC(=O)c1noc(-c2cc(C(C)C)c(O)cc2O)c1-c1ccc(CN2CCOCC2)cc1 [Luminespib (AUY-922)]	104%	105%	102%	106%	105%	97.7%	85.5%	97.5%	122%	102.76%	99.56%	99.92%	104.97%	103.86%	93.85%	83.59%	96.12%	122.22%
